Data published in US20200138827A1, “SMALL MOLECULE MODULATORS OF HUMAN STING” (Curadev Pharma Limited, priority 2017, published 2020).
pEC50: −log10 of the molar value. Where two headings read alike, the source gives them in different places.

How the values were obtained:
NF-κB pathway = assay: Reporter gene expression assay in THP1-Dual cells, NFkB axis (secreted SEAP); assay type: cell-based, human; settings: read-out: THP-NFKB activity (EC50 range)
Protocol: (§1) THP1-Dual™ cells (Invivogen) were derived from the human THP-1 monocyte cell line by stable integration of two inducible reporter constructs. As a result, THP1-Dual™ cells allow the simultaneous study of the NF-κB pathway, by monitoring the activity of secreted SEAP, and the IRF pathway, by assessing the activity of a secreted luciferase (Lucia). […] THP1-Dual™ cells were seeded in 384-well plates in growth medium and stimulated with novel compounds. After […] of stimulation supernatant were removed and reporter proteins were readily measured in the cell culture supernatant using QUANTI-Blue™ (Invivogen), a SEAP detection reagent, and QUANTI-Luc™ (Invivogen), a luciferase detection reagent on a Spectramax i3X luminometer.

WT/R232 STING protein = target: T1, WT/R232 STING protein (Homo sapiens, UniProt Q86WV6, H232R); assay: Luciferase reporter assay in HEK293T-hSTING-Luciferase cells, WT/R232; assay type: cell-based; settings: 20 hr stimulation, read-out: R232 Activity (EC50 range)
T1 construct: host or cells: HEK293T
How it was run: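 Clonal HEK293T cells stably expressing human STING R232 plus an ISRE/ISG54-driven luciferase reporter, 5×10^5 per well, stimulated with compounds for 20 h. Secreted luciferase in supernatant measured by luminescence; […].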

IRF pathway = assay: Reporter gene expression assay in THP1-Dual cells, IRF axis (secreted Lucia luciferase); assay type: cell-based, human; settings: read-out: THP-IRF activity (EC50 range)
Protocol: as §1

hSTING(H232) = target: T2, hSTING(H232) (Homo sapiens, UniProt Q86WV6); assay: Luciferase reporter assay in HEK293T-hSTING-Luciferase cells, H232 polymorph; assay type: cell-based; settings: 20 hr stimulation, read-out: H232 activity (EC50 range)
T2 construct: host or cells: HEK293T
From the text: (§2) • a) Stable STING expressing cells—Stable HEK293T STING-expressing cell lines were generated using plasmids purchased from Invivogen, Calif., USA, that contain STING cDNA cloned into the pUNO-1 vector under hEF1-HTLV promoter and containing the Blasticidin selection cassette. The plasmids hSTING(R232), hSTING(H232), hSTING(HAQ) were directly procured from Invivogen while hSTING (AQ) and hSTING (Q) were derived from hSTING(HAQ) and hSTING (R232) plasmids respectively by using a PCR based site directed mutagenesis method. These vectors were individually transfected into HEK293T cells using Lipofectamine (Invitrogen) and transfected cells were selected under Blasticidin selection. These transfected cells were further subjected to clonal selection using the limiting dilution method to obtain clonally pure populations of HEK cells transfected with each of the above mentioned human STING variants. Only those clones were selected in which ligand independent activation of STING was minimal. • b) Stable Luciferase reporter gene expressing cells—Stable HEK293T Luciferase reporter gene expressing cell lines were generated using pCDNA4 plasmids under an IRF-inducible promoter. This promoter is comprised of five tandem interferon-stimulated response elements (ISRE) fused to an ISG54 minimal promoter. This vector was transfected into HEK293T cells using Lipofectamine (Invitrogen) and transfected cells were selected under Zeocin selection. These transfected cells were further subjected to clonal selection using the limiting dilution method to obtain clonally pure populations of HEK cells transfected the Luciferase reporter construct. Only those clones were selected in which ligand independent induction of luciferase was minimal.
(§3) 5×10^5 clonally selected HEK293T-hSTING-Luciferase cells were seeded in 384-well plates in growth medium and stimulated with novel compounds. After 20 hr of stimulation supernatant were removed and secretary reporter gene activity were measured using the Quanti-Luc detection system (Invivogen) on a Spectramax i3X luminometer.
(§4) The 5 major polymorphisms of human STING are shown in FIG. 1, with their prevalence in human populations indicated.

hSTING(HAQ) = target: T3, hSTING(HAQ) (Homo sapiens, UniProt Q86WV6, G230A/H232R/R293Q/R71H); assay: Luciferase reporter assay in HEK293T-hSTING-Luciferase cells, HAQ polymorph; assay type: cell-based; settings: 20 hr stimulation, read-out: HAQ activity (EC50 range)
T3 construct: host or cells: HEK293T
From the text: as §2, §3, §4

T3 sequence (Q86WV6 whole entry R71H/G230A/H232R/R293Q): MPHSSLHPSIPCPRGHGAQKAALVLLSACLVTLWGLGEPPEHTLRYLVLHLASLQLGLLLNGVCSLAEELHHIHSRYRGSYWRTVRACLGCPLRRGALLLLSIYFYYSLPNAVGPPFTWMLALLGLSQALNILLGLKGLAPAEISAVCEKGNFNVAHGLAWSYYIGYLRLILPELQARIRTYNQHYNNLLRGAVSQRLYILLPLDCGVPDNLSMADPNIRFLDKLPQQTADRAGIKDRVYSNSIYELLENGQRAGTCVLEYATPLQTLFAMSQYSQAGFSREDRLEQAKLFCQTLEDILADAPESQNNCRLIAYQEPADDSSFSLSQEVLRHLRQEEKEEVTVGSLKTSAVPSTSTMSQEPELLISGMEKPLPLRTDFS
T1 sequence (Q86WV6 whole entry H232R): as the sequence (Q86WV6 whole entry R71H/G230A/H232R/R293Q) above, with H71R, A230G, Q293R counted along it
T2 sequence (Q86WV6 whole entry): as the sequence (Q86WV6 whole entry R71H/G230A/H232R/R293Q) above, with H71R, A230G, R232H, Q293R counted along it

pEC50 (NF-κB pathway; Homo sapiens, THP1-Dual)	pEC50 (WT/R232 STING protein)	pEC50 (IRF pathway; Homo sapiens, THP1-Dual)	pEC50 (hSTING(H232))	pEC50 (hSTING(HAQ))	pEC50 (NF-κB pathway)	pEC50 (IRF pathway)	Structure (SMILES)
5.00 to 6.00	> 6.00	5.00 to 6.00	> 6.00	> 6.00			CC1(C)CC(=O)N(Cc2cc(F)cc(F)c2)c2cc(C(=O)NCc3c(F)cc(F)cc3F)ccc21 [Example 271, 1-(3,5-difluorobenzyl)-4,4-dimethyl-2-oxo-N-(2,4,6-trifluorobenzyl)-1,2,3,4-tetrahydroquinoline-7-carboxamide]
< 5.00	> 6.00	< 5.00	< 5.00	5.00 to 6.00			O=C(NCc1ccc(F)cc1)c1ccc2c(c1)N(Cc1c(F)cccc1Cl)C(=O)CC2 [Example 269, 1-(2-chloro-6-fluorobenzyl)-N-(4-fluorobenzyl)-2-oxo-1,2,3,4-tetrahydroquinoline-7-carboxamide]
< 5.00	5.00 to 6.00	< 5.00	5.00 to 6.00	5.00 to 6.00			Cc1ccc(CNC(=O)c2ccc3c(n2)N(Cc2c(F)cccc2Cl)C(=O)C(C)S3)o1 (centres unmarked) [Example 202, 4-(2-chloro-6-fluorobenzyl)-2-methyl-N-((5-methylfuran-2-yl)methyl)-3-oxo-3,4-dihydro-2H-pyrido[3,2-b] [1,4]thiazine-6-carboxamide]

Second part, the molecule before the results:

Structure (SMILES)	pEC50 (NF-κB pathway; Homo sapiens, THP1-Dual)	pEC50 (WT/R232 STING protein)	pEC50 (IRF pathway; Homo sapiens, THP1-Dual)	pEC50 (hSTING(H232))	pEC50 (hSTING(HAQ))	pEC50 (NF-κB pathway)	pEC50 (IRF pathway)
O=C(NCc1ccco1)c1ccc2c(c1)N(Cc1cccc(F)c1F)C(=O)CS2 [Example 82, 4-(2,3-difluorobenzyl)-N-(furan-2-ylmethyl)-3-oxo-3,4-dihydro-2H-benzo[b-1,4]thiazine-6-carboxamide]	< 5.00	5.00 to 6.00	< 5.00	5.00 to 6.00	5.00 to 6.00		
O=C(NCc1ccco1)c1ccc2c(n1)N(Cc1c(F)cccc1Cl)C(=O)CS2 [Example 181, 4-(2-chloro-6-fluorobenzyl)-N-(furan-2-ylmethyl)-3-oxo-3,4-dihydro-2H-pyrido[3,2-b-1,4]thiazine-6-carboxamide]	< 5.00	5.00 to 6.00	< 5.00	< 5.00	< 5.00		
O=C(NCc1ccc(F)cc1F)c1ccc2c(c1)N(Cc1c(F)cccc1Cl)C(=O)CS2 [Example 34, 4-(2-chloro-6-fluorobenzyl)-N-(2,4-difluorobenzyl)-3-oxo-3,4-dihydro-2H-benzo[b-1,4]thiazine-6-carboxamide]	< 5.00	> 6.00	< 5.00	> 6.00	5.00 to 6.00		
CC1Sc2ccc(C(=O)NCc3c(F)cc(F)cc3F)cc2N(Cc2cc(F)cc(F)c2)C1=O (centres unmarked) [Example 145, 4-(3,5-difluorobenzyl)-2-methyl-3-oxo-N-(2,4,6-trifluorobenzyl)-3,4-dihydro-2H-benzo[b-1,4]thiazine-6-carboxamide]		> 6.00		> 6.00	> 6.00	5.00 to 6.00	5.00 to 6.00
Cc1cc(CN2C(=O)CSc3ccc(C(=O)NCc4ccco4)cc32)cc(C(F)(F)F)c1 [Example 83, N-(furan-2-ylmethyl)-4-(3-methyl-5-(trifluoromethyl)benzyl)-3-oxo-3,4-dihydro-2H-benzo[b-1,4]thiazine-6-carboxamide]	< 5.00	5.00 to 6.00	< 5.00	< 5.00	< 5.00		
O=C(NCc1ccco1)c1ccc2c(c1)N(Cc1ccc(F)cc1)C(=O)CS2 [Example 120, 4-(4-fluorobenzyl)-N-(furan-2-ylmethyl)-3-oxo-3,4-dihydro-2H-benzo[b-1,4]thiazine-6-carboxamide]	< 5.00	5.00 to 6.00	< 5.00	5.00 to 6.00	< 5.00		
CC1Sc2ncc(C(=O)NCc3cc4ccccc4o3)cc2N(Cc2cc(F)cc(F)c2)C1=O (centres unmarked) [Example 193, N-(benzofuran-2-ylmethyl)-1-(3,5-difluorobenzyl)-3-methyl-2-oxo-2,3-dihydro-1H-pyrido[2,3-b][1,4]thiazine-7-carboxamide]		> 6.00		5.00 to 6.00	5.00 to 6.00	< 5.00	< 5.00
